# Test results as given in patent US11597739B2, “Enhancing CD8+ T cells for adoptive T cell therapy by inhibiting PTPN1 (PTP1B) and PTPN2 (TC-PTP)” (The Royal Institution for the Advancement of …, priority 2017, dated 2023).
# Test system: mouse CD8 T cells differentiated into Tcm cells
# Experiment: Exhaustion and effector markers after CTL re-stimulation (flow cytometry)
# Format: cell-based
# Conditions: second stimulation with anti-CD3, anti-CD28 and IL-2 for 5 days
# Source text: FIG. 8 illustrates that pharmacological inhibition of PTPN1/2 reduces expression of exhaustion markers and increases effector-molecule expression after CTL re-stimulation. Flow cytometric analysis of CD8 T cells differentiated into Tcm cells after 5 days of a second stimulation with anti-CD3 and anti-CD28 in presence or absence of K884. Histograms show the expression of exhaustion markers PD-1, CTLA-4, KLRG1 and LAG-3, and granzyme B and IFN-γ as markers of effector CTLs. Cells are gated on live/CD8+/CD62L^high.
# 2 μg/ml of 145-2C11 Hamster anti-Mouse CD3e in 300 μl of PBS are plated in 24 flat bottom well non-TC treated plates. Incubate O/N at 4° C. CD8 T cells from spleens of 8-12 weeks old OT-1 transgenic mice are isolated. 4×10^5 cells/ml are counted and resuspended in complete RPMI (RPMI+10% FBS heat inactivated at 55° C. for 45 min+Pen/Strep+55 μM β-Mercaptoethanol). The following 2× solutions are prepared:
# 0.5 ml of 2× solution is added to the corresponding wells. Incubate for 4-8 days. Every 2 days add inhibitor to the corresponding concentration. When the cells are confluent, expand to 6 cm tissue culture plates adding 4 ml of complete RPMI+20 U/ml of IL-2 and in b add 10 μM K884.
# Calculate the specific cell lysis as follows: Specific cell lysis=((Sample−BF)/(AF−BF))×100 10) Flow Cytometry 1. Cell Activation • a. Wash cells with 1 ml of culture medium; • b. Centrifuge cells for 5 min at 300 g; • c. Resuspend cells in culture medium; • d. Prepare 2× solutions (negative control with only culture medium, Positive condition with 50 ng/mL of PMA and 500 ng/mL of lonomycin); • e. Plate 100 μL of cell suspension in 96 well plates (U-bottom); • f. Add 100 μL of 2× solutions in appropriate wells; • g. Incubate 4 hours at 37 C, 5% CO2. 2. Extracellular Staining • a. Record cell quantity transfers per tube; • b. Wash cells with 1 mL of PBS+2% FBS; • c. Centrifuge cells for 5 min at 300 g; • d. Empty tubes by inversion; • e. Add the antibodies for extracellular staining; • f. Incubate 20 min at 4° C.; • g. Wash cells with 1 mL of PBS+2% FBS; • h. Centrifuge cells for 5 min at 300 g; • i. […]
smiles,measurement,value
"CCOC(=O)c1cc2cc(C(F)(F)P(=O)(O)O)c(Br)cc2s1 [Ex. 1, ((6-BROMO-2-(ETHOXYCARBONYL)BENZO[B]THIOPHEN-5-YL)DIFLUOROMETHYL)PHOSPHONATE]","expression of exhaustion markers PD-1, CTLA-4, KLRG1","displayed less exhaustion markers PD-1, CDTLA4 and KLRG1"
same,expression of the receptor LAG-3,increased expression of the receptor LAG-3
same,levels of Granzyme B and IFN-gamma,higher levels of Granzyme B and IFN-gamma
